The data set can be described thus: 6-month stability study of the compositions (impurity concentrations). It is filed as physicochemical.

Structures are written as SMILES.

Data on one compound can be found in US20150094345A1, “PHARMACEUTICAL FORMULATION HAVING IMPROVED STABILITY” (priority 2012, published 2015).

As to `CCOC(=O)C1=C(COCCN)NC(C)=C(C(=O)OC)C1c1ccccc1Cl` (centres unmarked) [amlodipine besylate], where the note is “any storage condition, 6-month stability testing period, composition containing ramipril and amlodipine”, the “concentration of the main decomposition product of amlodipine besylate (European Pharmacopeia: Impurity D)” value is on record as at most 0.05%. For the same compound, the “stability of amlodipine besylate in the combination dosage form” value (until the end of the six-month stability testing period) is “remains stable”.
